Values after ≈ are worked out from the molar mass of the structure shown.
What was measured:
[1] = system: Trichophyton benhamiae; assay: Antimicrobial activity against Trichophyton mentagrophytes fungus at a dose of 120 ug; format: functional
[2] = system: Bacillus subtilis; assay: Antimicrobial activity against gram positive Bacillus subtilis at a dose of 120 ug; format: functional
[3] = system: Candida albicans; assay: Minimum inhibitory concentration against Candida albicans fungus at a dose of 120 ug; format: functional
[4] = system: Pseudomonas aeruginosa; assay: Antimicrobial activity against gram negative Pseudomonas aeruginosa at a dose of 120 ug; format: functional
[5] = system: Escherichia coli; assay: Antimicrobial activity against gram negative Escherichia coli at a dose of 120 ug; format: functional
[6] = system: Amorphotheca resinae; assay: Antimicrobial activity against Cladosporium resinae fungus at a dose of 120 ug; format: functional
[7] = system: P388; assay: In vitro cytotoxic activity against mouse leukemia (P388 ) cell line; format: functional, cell-based
[8] = system: Candida albicans; assay: Antimicrobial activity against Candida albicans fungus at a dose of 120 ug; format: functional
[9] = system: BSC-1; assay: In vitro cytotoxic activity against non-malignant african green monkey kidney cell-line (BSC-1); ranges from 3.5-4.5 mm; format: functional, Cercopithecidae
[10] = system: Candida albicans; assay: Antimicrobial activity against Candida albicans fungus at a dose of 120 microg; format: functional
[11] = system: CHO; assay: In vitro cytotoxic activity towards DNA-double strand break repair deficient Chinese Hamster Ovary (CHO) cell-line EM9; format: functional, cell-based; conditions: Cricetulus griseus
[12] = system: CHO; assay: Hypersensitivity Factor(HF) against DNA-double strand break repair deficient Chinese Hamster Ovary (CHO) cell-line xrs-6 versus wild type BR1(IC50 BRI/IC50 xrs-6); format: functional, Cricetulus griseus
[13] = system: CHO; assay: In vitro cytotoxic activity against DNA-double strand break repair deficient Chinese Hamster Ovary (CHO) cell-line xrs-6; format: functional, cell-based; conditions: Cricetulus griseus
[14] = system: MCF7; assay: In vitro cytotoxic activity against human breast (MCF-7) cell line; format: functional, cell-based
[15] = system: BSC-1; assay: In vitro cytotoxic activity against non-malignant african green monkey kidney cell-line (BSC-1); ranges from 4.5-5 mm; format: functional, Cercopithecidae
[16] = system: HCT-116; assay: In vitro cytotoxic activity against human colon (HCT116) cell line; format: functional, cell-based
[17] = system: CHO; assay: Hypersensitivity Factor (HF2) towards DNA-double strand break repair deficient Chinese Hamster Ovary (CHO) cell-line EM9 versus wild type BR1([…]); format: functional, Cricetulus griseus
[18] = system: CHO; assay: Hypersensitivity Factor(HF) towards DNA-double strand break repair deficient Chinese Hamster Ovary (CHO) cell-line xrs-6 versus wild type BR1(IC50 BRI/IC50 xrs-6); format: functional, Cricetulus griseus
[19] = system: Candida albicans; assay: Minimum inhibitory concentration against Candida albicans fungus at a dose of 120 microg; format: functional
[20] = system: CHO; assay: In vitro cytotoxic activity against DNA-double strand break repair deficient Chinese Hamster Ovary (CHO) cell-line EM9; format: functional, cell-based; conditions: Cricetulus griseus

Row | SMILES | Excess zone radius [1] | Excess zone radius [2] | MIC [3] | Excess zone radius [4] | Excess zone radius [5] | Excess zone radius [6] | IC50 [7] | Excess zone radius [8] | Excess zone radius [9] | Excess zone radius [10] | IC50 [11] | HF [12] | IC50 [13] | IC50 [14] | Excess zone radius [15] | IC50 [16] | HF2 [17] | HF [18] | MIC [19] | IC50 [20]
1 | Cc1c2c(nc3ccccc13)C(=O)c1ccccc1C2=O | 0 mm | 3 mm | 25 µg/mL (≈ 91.5 µM) | 0 mm | 0 mm | 0 mm | 39000 nM |  |  |  |  |  |  |  |  |  |  |  |  | 
2 | Cc1c2c(nc3ccccc13)C(=O)c1cccnc1C2=O | 0 mm | 10 mm |  | 0 mm | 0 mm | 6 mm | 56000 nM | 1 mm | 3.5 mm |  |  |  |  |  |  |  |  |  |  | 
3 | O=C1c2cccnc2-c2nccc3c2c1nc1ccccc13 [ASCIDIDEMIN] | 0 mm | 14 mm |  | 0 mm | 10 mm | 10 mm | 400 nM |  |  | 11 mm | 300 nM | 10 | 30 nM | 300 nM | 4.5 mm | 300 nM | 1 |  |  | 
4 | O=C1c2ccccc2-c2nccc3c2c1nc1ccccc13 [BENZOSAMPANGINE] | 10 mm | 8 mm |  | 0 mm | 0 mm | 0 mm | 1600 nM | 12 mm |  |  |  |  | 18000 nM | > 350000 nM |  | > 350000 nM | 0.2 | 1 | 0.39 µg/mL (≈ 1.38 µM) | 18000 nM

Reference: ChEMBL document CHEMBL1153679, “Structural requirements for biological activity of the marine alkaloid ascididemin” (Bioorg Med Chem Lett, 1995)
